According to publication PMC7000700, “RyR1-targeted drug discovery pipeline integrating FRET-based high-throughput screening and human myofiber dynamic Ca^2+ assays” (Scientific Reports, 2020):

Key:
[1] = molecular target: T1, RyR1 (Sus scrofa, UniProt P16960); experiment: F-FKBP binding to RyR1 by co-sedimentation with skeletal SR membranes; parameters: using co-sedimentation with pig skeletal and cardiac SR membranes; from tissue; host or cells: pig skeletal muscle (heavy SR membranes); species or system pig; conditions: RyR1, 10 μM Hit, 30 nM Ca2+, 5 mM GSSG or GSH
T1 sequence (P16960 whole entry): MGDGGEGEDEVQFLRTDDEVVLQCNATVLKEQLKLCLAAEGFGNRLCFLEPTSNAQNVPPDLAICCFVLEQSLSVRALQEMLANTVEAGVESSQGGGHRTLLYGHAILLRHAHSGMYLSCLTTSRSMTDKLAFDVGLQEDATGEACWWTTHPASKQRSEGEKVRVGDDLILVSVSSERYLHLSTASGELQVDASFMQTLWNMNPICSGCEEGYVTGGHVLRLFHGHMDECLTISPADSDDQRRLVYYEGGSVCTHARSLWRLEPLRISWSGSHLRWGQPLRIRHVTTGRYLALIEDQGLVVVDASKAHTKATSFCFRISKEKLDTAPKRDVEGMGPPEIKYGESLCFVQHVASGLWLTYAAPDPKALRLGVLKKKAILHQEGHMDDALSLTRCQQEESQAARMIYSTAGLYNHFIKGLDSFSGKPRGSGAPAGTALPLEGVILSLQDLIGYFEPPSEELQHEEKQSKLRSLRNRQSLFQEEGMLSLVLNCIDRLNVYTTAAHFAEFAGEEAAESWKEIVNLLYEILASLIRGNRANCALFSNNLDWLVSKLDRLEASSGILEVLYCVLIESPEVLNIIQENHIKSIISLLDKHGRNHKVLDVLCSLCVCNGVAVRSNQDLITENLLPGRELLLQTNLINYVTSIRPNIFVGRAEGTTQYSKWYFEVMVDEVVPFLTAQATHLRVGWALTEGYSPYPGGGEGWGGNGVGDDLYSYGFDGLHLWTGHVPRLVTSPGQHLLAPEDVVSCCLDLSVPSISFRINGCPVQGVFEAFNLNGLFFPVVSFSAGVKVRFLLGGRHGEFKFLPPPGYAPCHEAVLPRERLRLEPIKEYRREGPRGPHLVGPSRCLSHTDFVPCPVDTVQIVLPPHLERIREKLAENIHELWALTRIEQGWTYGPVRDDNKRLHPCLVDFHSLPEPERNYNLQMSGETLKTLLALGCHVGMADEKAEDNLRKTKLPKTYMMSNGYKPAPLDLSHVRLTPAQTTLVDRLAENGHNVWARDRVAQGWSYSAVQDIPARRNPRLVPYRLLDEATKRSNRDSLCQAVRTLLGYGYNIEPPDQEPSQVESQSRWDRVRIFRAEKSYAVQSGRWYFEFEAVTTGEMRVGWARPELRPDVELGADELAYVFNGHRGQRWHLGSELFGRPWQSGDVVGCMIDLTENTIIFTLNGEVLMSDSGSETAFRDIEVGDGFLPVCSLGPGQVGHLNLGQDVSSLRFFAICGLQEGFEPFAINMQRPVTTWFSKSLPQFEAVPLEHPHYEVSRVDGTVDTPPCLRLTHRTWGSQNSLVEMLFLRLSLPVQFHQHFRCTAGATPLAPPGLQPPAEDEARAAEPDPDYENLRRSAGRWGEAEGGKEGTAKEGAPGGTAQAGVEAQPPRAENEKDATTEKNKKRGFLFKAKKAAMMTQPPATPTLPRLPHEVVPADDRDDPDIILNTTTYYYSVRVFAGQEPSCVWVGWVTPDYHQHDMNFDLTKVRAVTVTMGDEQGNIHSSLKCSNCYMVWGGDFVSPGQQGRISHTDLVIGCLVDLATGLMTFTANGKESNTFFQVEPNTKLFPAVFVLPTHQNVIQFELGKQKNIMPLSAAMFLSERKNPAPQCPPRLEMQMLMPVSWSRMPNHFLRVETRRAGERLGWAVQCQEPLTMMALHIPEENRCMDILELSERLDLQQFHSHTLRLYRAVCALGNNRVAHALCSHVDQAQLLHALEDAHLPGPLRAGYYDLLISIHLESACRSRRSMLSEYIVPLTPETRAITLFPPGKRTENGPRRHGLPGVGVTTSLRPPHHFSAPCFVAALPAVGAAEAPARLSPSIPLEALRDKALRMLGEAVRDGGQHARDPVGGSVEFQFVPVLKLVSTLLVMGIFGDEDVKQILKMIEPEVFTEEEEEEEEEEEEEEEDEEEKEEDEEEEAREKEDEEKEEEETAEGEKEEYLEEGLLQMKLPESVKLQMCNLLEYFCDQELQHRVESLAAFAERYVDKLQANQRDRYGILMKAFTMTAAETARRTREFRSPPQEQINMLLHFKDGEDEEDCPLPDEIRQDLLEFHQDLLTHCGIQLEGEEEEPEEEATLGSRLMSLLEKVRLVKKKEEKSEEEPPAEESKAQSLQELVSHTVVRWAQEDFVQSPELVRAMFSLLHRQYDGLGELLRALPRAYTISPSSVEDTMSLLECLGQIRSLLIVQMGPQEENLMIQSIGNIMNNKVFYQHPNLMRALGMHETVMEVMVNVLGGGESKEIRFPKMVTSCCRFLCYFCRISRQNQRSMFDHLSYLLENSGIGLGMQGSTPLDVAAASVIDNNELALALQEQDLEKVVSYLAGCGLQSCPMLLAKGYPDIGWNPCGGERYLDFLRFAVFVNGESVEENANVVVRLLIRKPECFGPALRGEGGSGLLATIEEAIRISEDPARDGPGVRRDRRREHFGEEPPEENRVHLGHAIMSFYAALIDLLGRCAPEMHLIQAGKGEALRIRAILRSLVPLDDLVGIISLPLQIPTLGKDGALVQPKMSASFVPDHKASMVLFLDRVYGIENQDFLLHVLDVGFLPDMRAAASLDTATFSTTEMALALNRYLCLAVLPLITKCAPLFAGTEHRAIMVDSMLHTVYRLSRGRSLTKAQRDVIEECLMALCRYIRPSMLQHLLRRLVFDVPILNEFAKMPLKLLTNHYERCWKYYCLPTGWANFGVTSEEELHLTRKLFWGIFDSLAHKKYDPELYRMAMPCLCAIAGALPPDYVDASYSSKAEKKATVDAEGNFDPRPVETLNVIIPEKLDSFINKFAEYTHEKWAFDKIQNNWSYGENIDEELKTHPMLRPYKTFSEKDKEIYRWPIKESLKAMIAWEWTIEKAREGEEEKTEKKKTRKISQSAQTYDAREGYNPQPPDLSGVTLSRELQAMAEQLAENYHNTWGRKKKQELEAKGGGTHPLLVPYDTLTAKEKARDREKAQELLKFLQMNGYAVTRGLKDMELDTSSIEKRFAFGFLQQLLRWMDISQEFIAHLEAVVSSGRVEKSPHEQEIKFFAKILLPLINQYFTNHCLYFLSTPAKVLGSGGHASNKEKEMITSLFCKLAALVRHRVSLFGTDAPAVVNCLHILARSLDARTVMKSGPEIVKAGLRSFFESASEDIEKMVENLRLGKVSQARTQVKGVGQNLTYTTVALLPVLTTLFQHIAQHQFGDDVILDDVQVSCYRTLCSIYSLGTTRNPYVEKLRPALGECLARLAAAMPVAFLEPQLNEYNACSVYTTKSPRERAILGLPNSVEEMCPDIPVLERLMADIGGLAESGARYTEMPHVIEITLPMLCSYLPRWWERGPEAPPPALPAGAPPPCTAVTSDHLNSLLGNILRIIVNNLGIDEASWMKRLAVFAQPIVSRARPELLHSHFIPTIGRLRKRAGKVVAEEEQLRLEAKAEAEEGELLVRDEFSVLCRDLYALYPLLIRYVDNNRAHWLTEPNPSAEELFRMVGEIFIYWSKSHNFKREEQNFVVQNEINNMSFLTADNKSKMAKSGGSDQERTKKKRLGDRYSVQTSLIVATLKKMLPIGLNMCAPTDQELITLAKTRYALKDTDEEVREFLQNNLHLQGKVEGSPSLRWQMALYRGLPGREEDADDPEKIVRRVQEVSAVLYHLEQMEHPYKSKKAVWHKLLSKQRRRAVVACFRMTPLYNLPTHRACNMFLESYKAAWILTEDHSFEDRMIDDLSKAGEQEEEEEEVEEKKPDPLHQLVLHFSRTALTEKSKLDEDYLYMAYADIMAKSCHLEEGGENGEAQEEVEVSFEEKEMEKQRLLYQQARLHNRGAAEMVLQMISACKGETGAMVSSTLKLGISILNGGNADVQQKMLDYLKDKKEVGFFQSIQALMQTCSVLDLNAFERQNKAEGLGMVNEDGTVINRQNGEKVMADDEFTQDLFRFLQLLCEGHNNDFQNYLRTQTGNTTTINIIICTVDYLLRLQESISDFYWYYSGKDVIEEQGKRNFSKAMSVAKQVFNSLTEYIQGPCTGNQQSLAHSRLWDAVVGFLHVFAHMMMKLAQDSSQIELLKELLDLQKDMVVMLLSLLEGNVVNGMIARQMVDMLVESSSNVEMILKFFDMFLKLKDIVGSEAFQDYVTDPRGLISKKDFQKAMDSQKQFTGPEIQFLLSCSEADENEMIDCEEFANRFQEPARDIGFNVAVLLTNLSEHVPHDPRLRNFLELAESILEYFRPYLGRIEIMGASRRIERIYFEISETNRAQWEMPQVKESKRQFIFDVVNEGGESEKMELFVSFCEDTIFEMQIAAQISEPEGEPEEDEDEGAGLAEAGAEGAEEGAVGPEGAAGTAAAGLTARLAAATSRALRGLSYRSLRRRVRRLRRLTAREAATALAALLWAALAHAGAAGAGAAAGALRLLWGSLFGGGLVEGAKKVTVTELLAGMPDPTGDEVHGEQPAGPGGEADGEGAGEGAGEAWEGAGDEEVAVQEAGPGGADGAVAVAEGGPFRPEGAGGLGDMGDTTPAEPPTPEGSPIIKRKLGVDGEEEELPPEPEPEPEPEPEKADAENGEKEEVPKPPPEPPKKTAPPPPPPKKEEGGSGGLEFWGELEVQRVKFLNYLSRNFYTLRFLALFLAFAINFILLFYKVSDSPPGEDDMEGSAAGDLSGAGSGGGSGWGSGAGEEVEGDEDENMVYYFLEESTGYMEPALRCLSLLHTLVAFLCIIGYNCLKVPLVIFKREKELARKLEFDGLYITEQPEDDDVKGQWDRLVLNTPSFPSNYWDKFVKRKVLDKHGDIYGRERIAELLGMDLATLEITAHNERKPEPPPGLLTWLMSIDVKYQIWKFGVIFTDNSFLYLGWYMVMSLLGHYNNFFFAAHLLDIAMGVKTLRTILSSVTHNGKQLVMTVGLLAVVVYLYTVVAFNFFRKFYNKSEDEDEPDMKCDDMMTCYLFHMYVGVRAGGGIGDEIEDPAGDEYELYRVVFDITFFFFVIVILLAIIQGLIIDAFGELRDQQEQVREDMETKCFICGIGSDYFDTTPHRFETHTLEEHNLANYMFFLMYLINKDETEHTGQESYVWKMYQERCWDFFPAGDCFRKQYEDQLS
Protocol: (§1) The Hit-induced effect on FRET between D-FKBP and A-CaM most likely results from one or the combination of factors, including a shift in CaM and/or FKBP12.6 binding, and/or structure of the RyR complex that shifts the D-A distance. Under the same assay conditions as in the primary screen, we assessed the effect of 10 μM Hit on fluorescent FKBP12.6 (F-FKBP) binding to RyRs, using co-sedimentation with pig skeletal and cardiac SR membranes.
(§2) Supplementary Fig. 3 Effect of HTS Hits on F-FKBP binding to a) RyR1 in skeletal HSR membranes, and b) RyR2
(§3) in cardiac CSR membranes at 30 nM Ca2+ in the presence of 5 mM GSSG or GSH. Results are represented as individual
(§4) data points and means ± SEM, n = 4-5. *P < 0.05 by 2-sided Student’s unpaired t-test. […]

[2] = molecular target: RyR2 (Sus scrofa, UniProt A0A5G2R1W3); experiment: F-FKBP binding to RyR2 by co-sedimentation with cardiac SR membranes; parameters: using co-sedimentation with pig skeletal and cardiac SR membranes; from tissue; host or cells: pig cardiac muscle (crude SR membranes); species or system pig; conditions: RyR2, 10 μM Hit, 30 nM Ca2+, 5 mM GSSG or GSH
Protocol: as §1, §2, §3, §4

[3] = molecular target: T1, RyR1; experiment: FLT-FRET between D-FKBP and A-CaM bound to RyR1 in skeletal SR membranes (HTS and dose-response); type: binding, porcine; parameters: RyR1 in skeletal SR membranes, and RyR2 in cardiac SR membranes; from tissue; host or cells: porcine longissimus dorsi muscle (heavy SR vesicles); conditions: for Hit in primary FLT-FRET HTS of LOPAC (FRET altered by > 4 SD vs DMSO): 10 μM compound, 2-hour incubation, 30 nM Ca2+, 5 mM GSSG, 0.3 μM A-CaM, 1536-well; for Influence of GSSG vs GSH on the FRET dose-response effect: 5 mM GSSG vs 5 mM GSH; for Effect on FRET: biphasic dose-response, isoform not stated
Protocol: To confer compatibility with current HTS standards in industrial drug discovery facilities, we miniaturized our screening format from the previously established 384-well plates, requiring 50 μL sample per well[19], to 1536-well plates, requiring 5 μL sample per well. The complete 1280-compound library of pharmacologically active compounds (LOPAC) was applied as 5 nL/well in 40 columns of one 1536-well black-wall/black-bottom plate, with the remaining 8 columns loaded with 5 nL/well of DMSO, as no-drug controls. For each run of the screen, three plates were loaded with either (1) unlabeled HSR, or (2) HSR pre-incubated with donor-FKBP (D-FKBP; donor-only sample), or (3) donor-only sample that was additionally incubated with 0.3 μM acceptor-CaM (A-CaM) for 60 min prior to loading on the plate (donor-acceptor sample). This sub-saturating concentration of A-CaM was used to provide a readout that is sensitive to library compounds that may increase or decrease CaM binding affinity to RyR. To promote a homogenous population of RyR1 resembling that associated with myopathies, final assay conditions also included 30 nM Ca^2+ to represent resting (muscle relaxing) Ca^2+, and 5 mM oxidized glutathione (GSSG), which exaggerates the conditions associated with oxidative stress.
We acquired both FLT waveforms and fluorescence spectra, as previously described[19],[33],[34]. As previously observed, Hit effects were greatest following a 2-hour incubation with the library compounds (Supplementary Fig. 1a). As a result, all FRET results shown in Figs. 1 and 2, and Supplementary Fig. 2 are reported from the 2-hour incubation.
Necessary counter-screens to our pathological RyR1 conditions include evaluating compound effects in healthy conditions and on the cardiac isoform, RyR2. Using the same FRET assay as in HTS, we tested the dose response of key Hits from this screen and the previously HTS-identified RyR1 inhibitor, chloroxine, on healthy (5 mM GSH) and pathological (5 mM GSSG) conditions for both RyR1 in skeletal SR membranes, and RyR2 in cardiac SR membranes.
Skeletal HSR and cardiac CSR (0.4 mg/ml) membranes were independently pre-incubated with 60 nM D-FKBP, for 90 min, at 37 °C, in a solution containing 150 mM KCl, 5 mM GSH, 0.1 mg/mL BSA, 1 µg/mL Aprotinin/Leupeptin, 1 mM DTT and 20 mM PIPES (pH 7.0). To remove unbound D-FKBP, the SR membranes were spun down at 110,000 × g for 20 min, and then resuspended to 1 mg/mL (skeletal HSR) and 2 mg/mL (cardiac CSR) in binding buffer consisting of 150 mM KCl, 5 mM GSSG, 0.1 mg/mL BSA, 1μg/mL Aprotinin/Leupeptin and 20 mM PIPES, pH 7.0. These samples were then incubated with indicated [A-CaM] for 30 min at 22 °C in binding buffer containing 0.065 mM CaCl2 to give 30 nM free Ca^2+ in the presence of 1 mM EGTA (calculated by MaxChelator). This labeled SR sample was applied to the assay plates in 5 μL aliquots using a Multidrop™ Combi reagent dispenser (Thermo Scientific) with a standard-tube. An additional set of the assay plates were loaded with skeletal HSR or cardiac CSR labeled with only D-FKBP (no added A-CaM).
FLT measurements were conducted in a top-read FLT-PR designed and built by Fluorescence Innovations, Inc[33]. AF488 donor fluorescence was excited with a 473-nm microchip laser from Concepts Research Corporation (Belgium, WI), and emission was acquired with 490-nm long-pass and 517/20-nm band-pass filters (Semrock, Rochester, NY).
FLT waveforms for each well were fit based on a one-exponential decay function using least-squares minimization global-analysis software (Fluorescence Innovations, Inc.), as previously described[19],[33]. FRET efficiency (E) was determined as the fractional decrease of donor FLT (τD), due to the presence of acceptor fluorophore (τDA), using the following equation:1 E=1−τDA/τD, […]

[4] = molecular target: T1, RyR1; experiment: [3H]ryanodine binding to skeletal SR vesicles; type: biochemical, porcine; parameters: RyR1 in skeletal SR membranes, and RyR2 in cardiac SR membranes; from tissue; host or cells: porcine longissimus dorsi muscle (heavy SR vesicles); conditions: 0-20 μM compound, Supplementary Fig. 5
Protocol: To evaluate the functional impact of compounds identified through our FRET-based screen, we first used [^3H]ryanodine binding assays. The level of [^3H]ryanodine binding to RyRs in SR membranes is a well-established index of the RyR channel activity. Given the role of CaM binding in our FRET readout, we investigated whether CaM influences the functional effect of the Hit compounds by carrying out [^3H]ryanodine binding assays in the absence and presence of CaM (300 nM).
Crude sarcoplasmic reticulum (CSR) vesicles were isolated from porcine longissimus dorsi muscle and porcine cardiac left ventricle tissue by differential centrifugation of homogenized tissue. HSR vesicles, which are enriched in RyR1, were isolated by fractionation of crude skeletal SR vesicles using a discontinuous sucrose gradient. All vesicles were flash-frozen and stored at −80 °C. Immediately prior to the fluorescence or [^3H]ryanodine binding studies described below, the SR vesicles were stripped of residual endogenous CaM by incubation with a peptide derived from the CaM binding domain of myosin light chain kinase, followed by sedimentation.
In 96-well plates, HSR vesicles (1 mg/ml) and cardiac CSR vesicles (3 mg/mL) were pre-incubated with 0.02% DMSO or Hit compound, with or without 300 nM CaM, for 30 min at 22 °C in a solution containing 150 mM KCl, 5 mM GSSG, 1 µg/mL Aprotinin/Leupeptin, 1 mM EGTA, and 65 µM or 1.02 mM CaCl2 (as determined by MaxChelator to yield 30 nM or 30 μM of free Ca^2+, respectively), 0.1 mg/mL BSA and 20 mM K-PIPES (pH 7.0). Non-specific and maximal [^3H]ryanodine binding to SR were separately assessed by addition of 40 µM non-radioactively labeled ryanodine or 5 mM Adenylyl-imidodiphosphate, respectively. Such control samples were each distributed over 4 wells/plate. Binding of [^3H]ryanodine (10 and 15 nM for cardiac and skeletal SR, respectively) was determined after a 3-h incubation (37 °C) and filtration through grade GF/B Glass Microfiber filters (Brandel Inc., Gaithersburg, MD, US) using a Brandel Harvester. In 4 mL of Ecolite Scintillation cocktail (MP biomedicals, Solon, OH, USA), [^3H] on filter was counted using a Beckman LS6000 scintillation counter (Fullerton, CA).

[5] = system: RyR1 Ca^2+ leak in human skinned skeletal muscle fibers; experiment: t-system Ca2+ readout of RyR1 Ca2+ leak in human mechanically skinned skeletal muscle fibers; conditions: 1 mM
[6] = isoform not given (figures show skeletal and cardiac SR)

Compound	Hit in primary FLT-FRET HTS of LOPAC (FRET altered by > 4 SD vs DMSO) [3]	Influence of GSSG vs GSH on the FRET dose-response effect [3, 6]	further results
C=CC[C@@H]1/C=C(\C)C[C@H](C)C[C@H](OC)[C@H]2O[C@@](O)(C(=O)C(=O)N3CCCC[C@H]3C(=O)O[C@H](/C(C)=C/[C@@H]3CC[C@@H](O)[C@H](OC)C3)[C@H](C)[C@@H](O)CC1=O)[C@H](C)C[C@@H]2OC [tacrolimus]	–	–	Decrease of F-FKBP binding [1]: 20%; Decrease of F-FKBP binding [2]: 70%
Reactive Blue	observe	–	–
Nc1ccc(-c2nc3ccc(-c4nc5ccc(N)cc5[nH]4)cc3[nH]2)cc1 [Ro 90–7501]	–	very similar FRET dose-response effects with GSSG or GSH	Effect on FRET ([3]; micromolar [compound]): decreased; Effect on FRET ([3]; sub-micromolar [compound]): increased; Effect on [3H]ryanodine binding [4]: inhibited
CCN(CC)C(=S)SSC(=S)N(CC)CC [disulfiram]	identified	more strongly decreased FRET in the presence of GSSG vs. GSH	–
N.N.[Cl][Pt][Cl] [cisplatin]	decrease in FRET	more strongly decreased FRET in the presence of GSSG vs. GSH	–
C[C@H](O)[C@H](O)[C@H]1CNc2nc(N)[nH]c(=O)c2N1 [(6 R)-BH4]	observe	–	–
O=C(Nc1cccc(C(=O)Nc2ccc(S(=O)(=O)O)c3cc(S(=O)(=O)O)cc(S(=O)(=O)O)c23)c1)Nc1cccc(C(=O)Nc2ccc(S(=O)(=O)O)c3cc(S(=O)(=O)O)cc(S(=O)(=O)O)c23)c1 [NF023]	identified	–	–
CN=c1nc(-c2ccccc2)n(-c2ccccc2)s1 [SCH-202676]	observe	more strongly decreased FRET in the presence of GSSG vs. GSH	–
O=C(O)C1=CC(=C(c2ccc(O)c(C(=O)O)c2)c2ccc(O)c(C(=O)O)c2)C=CC1=O [aurintricarboxylic acid]	observe	–	Compound concentration at which FRET is abolished ([3]; FRET dose-response, isoform not given (figures show skeletal and cardiac SR)): ≥ 10 µM; Effect on [3H]ryanodine binding [4]: potent inhibitor
CCCCNc1ccc(C(=O)OCCN(C)C)cc1 [Tetracaine, tetracaine]	–	–	RyR inhibition (reference level of leak assay) [5]: full RyR inhibition
Oc1ccc2ccccc2c1SSc1c(O)ccc2ccccc12 [IPA-3]	–	more strongly decreased FRET in the presence of GSSG vs. GSH	–
